Data set [1] deals with T1, RXRα (Homo sapiens, UniProt P19793).
T1 construct: expressed in transfected cells
T1 sequence (P19793 1-462): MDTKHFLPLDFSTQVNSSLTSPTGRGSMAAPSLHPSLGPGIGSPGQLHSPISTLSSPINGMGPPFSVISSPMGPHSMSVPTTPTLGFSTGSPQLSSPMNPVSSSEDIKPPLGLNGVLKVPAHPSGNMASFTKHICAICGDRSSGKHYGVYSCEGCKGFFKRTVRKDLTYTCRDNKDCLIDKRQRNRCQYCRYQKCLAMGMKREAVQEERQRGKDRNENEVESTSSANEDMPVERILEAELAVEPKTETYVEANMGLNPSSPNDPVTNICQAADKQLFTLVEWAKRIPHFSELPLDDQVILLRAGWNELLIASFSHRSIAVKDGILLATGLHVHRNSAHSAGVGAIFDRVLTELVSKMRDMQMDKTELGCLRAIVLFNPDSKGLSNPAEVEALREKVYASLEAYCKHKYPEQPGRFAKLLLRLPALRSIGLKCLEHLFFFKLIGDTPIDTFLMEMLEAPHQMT
The data set can be described thus: holoreceptor transactivation assay, RXRα. It counts as cell-based. From the text: A holoreceptor transactivation assay and a ligand binding assay which measure the antagonist/agonist like activity of the compounds of the invention, or their ability to bind to the several retinoid receptor subtypes, respectively, are described in published PCT Application No. WO WO93/11755 (particularly on pages 30–33 and 37–41) published on Jun. 24, 1993, the specification of which is also incorporated herein by reference. […] The results obtained in this assay are expressed in EC50 numbers, as they are also in the chimeric receptor transactivation assay. The results of the ligand binding assay are expressed in Ki numbers. (See Cheng et al. Biochemical Pharmacology Vol. 22 pp 3099–3108, expressly incorporated herein by reference.)
Particularly, the transactivation data pertaining to activation of the RAR receptors were obtained in the chimeric assay, and the transactivation data pertaining to the activation of RXR receptors were obtained in the holoreceptor assay.
(§1) In Table 1 NA stands for not active at all as an agonist. ND stands for not determined. The first row of numbers pertaining to each compound is the measured EC50 number. […] The third row of numbers pertaining to each compound is the binding Ki number.

The test system of data set [2] is young db/db mice. The data set can be described thus: serum thyroxine (T4) in young db/db mice, 14 days oral dosing. It counts as in vivo. As for the experimental part:
In another study the efficacy of RXR agonists in the prevention of diabetes was tested in young db/db mice. […] Serum samples were analyzed by using commercially available kits from Boehring Manheim for their thyroxine (T4) levels in a Boehringer Manheim Hatachi Clinical Chemistry Analyzer as described in the reference manual of Boehringer Mannheim Corporation, 9115 Hague Road, Indianapolis, Ind., USA, expressly incorporated herein.

In data set [3] the test system is diabetic db/db mice. Briefly: serum triglycerides in diabetic db/db mice, 7 days oral dosing. As to conditions: for Triglycerides: 50 mg/kg once daily oral gavage, mean +/- SD. The data set is classed as in vivo. The procedure:
(§2) Effects of RXR agonists on serum glucose and triglyceride were studied in diabetic db/db mice. […] Briefly, animals were dosed once daily by oral gavage using corn oil vehicle for a period of 7 consecutive days. Serum samples were collected on day 1 (first day of dosing) and day 7 at hour 0 (immediately prior to dosing) and hour 3 (approximately 3 hours after dosing). Serum glucose and triglyceride levels of these samples were measured as described in the reference manuals: Glucose/HK. Boehringer Mannheim Corporation, 9115 Hague Road, Indianapolis, Ind., USA and Triglycerides/GPO. Roche Diagnostics Corporation, 9115 Hague Road, Indianapolis, Ind., USA, expressly incorporated herein. Only those animals with glucose levels of higher than 300 mg/dl at 0 hour on day 1 were considered as diabetic and included in data analysis.
(§3) A measured amount of dosing solution was withdrawn into a metal feeding tube attached to a marked syringe. Animals were restrained by grasping of their back skin while the feeding tube was gently inserted into their mouth and into esophagus. A fixed amount of the dosing solution was displaced into the esophagus/stomach of the animal by pushing the plunger of the syringe. Serum samples were collected from the retro-orbital sinus while the animals were anesthetized. These samples were analyzed by using commercially available kits from Boehringer Manheim for their glucose levels and Roche Diagnostics for their triglyceride levels in a Boehringer Manheim Hatachi Clinical Chemistry Analyzer.
(§4) For glucose assay, an enzymatic reaction using hexokinase and glucose-6-phosphodehydrogenase to catalyze glucose to gluconate-6phosphate and NADPH was employed. The amount of NADPH formed during these reactions was equivalent to the amount of glucose in the serum and was measured with a spectrophotometer. For triglycerides, a series of enzymatic reactions which included lipase, glycerol kinase and glycerol phosphate oxidase to formed dihydroacetone phosphate and peroxidase. The peroxidase produced catalyzed a reaction between peroxide and 4-aminophenazone and 4-chlorophenol in a Trinder reaction to generate a color change. This color change was measured by a spectrophotometer and reflected the amount of triglyceride in the sample.

Data set [4] relates to diabetic db/db mice. Briefly: serum glucose in diabetic db/db mice, 7 days oral dosing. The data set is classed as in vivo. As to conditions: for Glucose: 50 mg/kg once daily oral gavage, mean +/- SD. The procedure:
as §2, §3, §4

Data set [5] concerns the target T2, RARγ (Homo sapiens, UniProt P13631).
T2 sequence (P13631 185-419 limits assumed): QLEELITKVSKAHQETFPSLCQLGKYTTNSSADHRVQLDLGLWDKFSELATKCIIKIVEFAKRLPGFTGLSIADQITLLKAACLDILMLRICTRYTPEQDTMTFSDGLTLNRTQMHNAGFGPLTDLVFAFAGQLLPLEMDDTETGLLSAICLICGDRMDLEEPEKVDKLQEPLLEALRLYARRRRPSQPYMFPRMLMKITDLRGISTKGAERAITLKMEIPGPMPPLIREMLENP
Briefly: chimeric receptor transactivation assay, RARγ. It counts as cell-based.
From the text: The specification of U.S. Pat. No. 5,455,265 is hereby expressly incorporated by reference.
Table 1 discloses the activity of certain exemplary compounds of the invention in the above-described receptor transactivation and binding assays. Particularly, the transactivation data pertaining to activation of the RAR receptors were obtained in the chimeric assay, and the transactivation data pertaining to the activation of RXR receptors were obtained in the holoreceptor assay.
Efficacy in a transactivation assay is expressed as a percentage of the maximum potency attained by the compound compared to a standard which, in this case, is the compound named (2E,4E,1′S,2′S)-3-methyl-5-[2′-methyl-2′-(5,5,8,8-tetramethyl-5,6,7,8-tetrahydro-naphthalen-2-yl)-cyclopropyl]-penta-2,4-dienoic acid.
as §1

Setting [6] is: Day 1, 0 hr (immediately prior to dosing).

The term EC50 denotes the concentration needed to bring the measured effect to its halfway point.

SMILES strings stand for the structures.

`CCOc1cc2c(cc1\C(CC)=C(F)/C=C/C(C)=C/C(=O)O)C(C)(C)CCC2(C)C` [Compound 2, (2E,4E,6E)-7-(3-Ethoxy-5,5,8,8-tetramethyl-5,6,7,8-tetrahydronaphthalen-2-yl)-6-fluoro-3-methylnona-2,4,6-trienoic acid]: the EC50 in data set [1] (NA = not active at all as an agonist, read-out: RXR Trans. EC50 α) stood at 0.8 nM. Further, in data set [1] (number in brackets), the “RXR α efficacy in percentage as compared to the standard compound” value is on record as 17%. Further, in data set [2] (50 mg/kg orally for 14 days, mean +/- SD (n = 7)), the Serum thyroxine is 1.30 ± 0.28 µg/dL. For the same compound, the “effect on serum T4 (in words)” value in data set [2] (mouse, in vivo) is “does not affect”. For the same compound, the Triglycerides in data set [3] (setting [6]) is 168 ± 74 mg/dL; in data set [3] (Day 1, 3 hr), 142 ± 94 mg/dL; in data set [3] (Day 7, 0 hr) it was 157 ± 106 mg/dL; in data set [3] (Day 7, 3 hr) it was 95 ± 33 mg/dL. Besides, the “effect on serum triglyceride (in words)” value in data set [3] (mouse, in vivo) is “does not affect”. Moreover, the Glucose was determined as 529 ± 123 mg/dL in data set [4] (setting [6]); 436 ± 127 mg/dL in data set [4] (Day 1, 3 hr); 414 ± 105 mg/dL in data set [4] (Day 7, 0 hr); 350 ± 140 mg/dL in data set [4] (Day 7, 3 hr). In data set [4] (mouse, in vivo), the “effect on serum glucose in diabetic mouse (in words)” value was “capable of lowering serum glucose”.
Take `CCCOc1cc2c(cc1\C(C)=C(F)/C=C/C(C)=C/C(=O)O)C(C)(C)CCC2(C)C` [Compound 4]: the EC50 in data set [5] (NA = not active at all as an agonist, read-out: RAR Trans. EC50 γ) was over 1000 nM. In addition, the “RAR γ efficacy in percentage as compared to the standard compound” value in data set [5] (number in brackets) turned out to be 15%.

The values above are taken from US7019034B2, “Compositions and methods for reducing serum glucose and triglyceride levels in diabetic mammals” (Allergan, Inc., priority 2003, dated 2006).
